Results taken from patent US5936065A, “CS-1 peptidomimetics, compositions and methods of using the same” (Cytel Corporation, priority 1995, dated 1999).
Square brackets hold non-standard residues; d marks the D form. Peptide text beside a SMILES is read from it. * marks the point of attachment. NHOctadecyl = CCCCCCCCCCCCCCCCCCN*; Cya = N[C@@H](CS(=O)(=O)O)C(=O)O; Cha = N[C@@H](CC1CCCCC1)C(=O)O; Phg = N[C@H](C(=O)O)c1ccccc1; X8 = CCCCCCCCCCCCCCCCCCO*; Nle = CCCC[C@H](N)C(=O)O; Piperidide = C1CCN(*)CC1; X7 = O=C(CO*)OCc1ccccc1; NHDecyl = CCCCCCCCCCN*; PhAc = O=C(Cc1ccccc1)*; ODecyl = CCCCCCCCCCO*; X1 = CCCCCCCCCCCCCCO*; X4 = CCN(CC)C(=O)CO*; Bz = O=C(c1ccccc1)*; OBn = c1ccc(CO*)cc1; X5 = CCCCCCCCCCCCO*; Ahx = NCCCCCC(=O)O; X6 = O=C(O)CO*

Target: T1, VLA-4 receptor (Homo sapiens, UniProt P05556+P13612)
T1 construct: inflammatory cells that contain the VLA-4 receptor [Jurkat cells; host or cells: Jurkat cells (human T lymphoblastic line)
T1 sequence (P13612 34-1032): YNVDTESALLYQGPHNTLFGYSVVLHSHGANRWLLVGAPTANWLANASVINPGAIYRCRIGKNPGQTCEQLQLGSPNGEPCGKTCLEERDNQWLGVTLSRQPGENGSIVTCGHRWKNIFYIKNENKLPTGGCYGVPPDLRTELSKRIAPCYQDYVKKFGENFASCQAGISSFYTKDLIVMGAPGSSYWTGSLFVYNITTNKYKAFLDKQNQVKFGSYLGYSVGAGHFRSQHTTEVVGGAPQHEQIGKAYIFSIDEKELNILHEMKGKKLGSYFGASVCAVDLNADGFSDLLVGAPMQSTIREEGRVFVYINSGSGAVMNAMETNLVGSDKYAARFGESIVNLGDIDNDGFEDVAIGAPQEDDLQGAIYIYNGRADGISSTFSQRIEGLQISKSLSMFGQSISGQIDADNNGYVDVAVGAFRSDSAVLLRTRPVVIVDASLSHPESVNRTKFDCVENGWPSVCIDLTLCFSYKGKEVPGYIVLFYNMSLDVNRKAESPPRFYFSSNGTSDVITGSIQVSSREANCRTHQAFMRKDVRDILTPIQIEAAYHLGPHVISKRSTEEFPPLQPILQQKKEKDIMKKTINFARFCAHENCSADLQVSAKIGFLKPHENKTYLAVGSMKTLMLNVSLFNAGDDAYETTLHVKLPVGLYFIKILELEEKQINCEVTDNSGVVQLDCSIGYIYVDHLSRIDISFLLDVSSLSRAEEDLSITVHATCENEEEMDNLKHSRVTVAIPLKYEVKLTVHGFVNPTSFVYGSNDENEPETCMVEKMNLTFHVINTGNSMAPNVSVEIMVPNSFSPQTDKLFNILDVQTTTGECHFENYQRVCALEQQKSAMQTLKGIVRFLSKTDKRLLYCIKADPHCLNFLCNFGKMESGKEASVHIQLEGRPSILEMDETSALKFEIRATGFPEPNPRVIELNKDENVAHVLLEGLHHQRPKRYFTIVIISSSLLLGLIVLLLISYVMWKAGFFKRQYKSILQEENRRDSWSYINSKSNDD
T1 sequence (P05556 21-798): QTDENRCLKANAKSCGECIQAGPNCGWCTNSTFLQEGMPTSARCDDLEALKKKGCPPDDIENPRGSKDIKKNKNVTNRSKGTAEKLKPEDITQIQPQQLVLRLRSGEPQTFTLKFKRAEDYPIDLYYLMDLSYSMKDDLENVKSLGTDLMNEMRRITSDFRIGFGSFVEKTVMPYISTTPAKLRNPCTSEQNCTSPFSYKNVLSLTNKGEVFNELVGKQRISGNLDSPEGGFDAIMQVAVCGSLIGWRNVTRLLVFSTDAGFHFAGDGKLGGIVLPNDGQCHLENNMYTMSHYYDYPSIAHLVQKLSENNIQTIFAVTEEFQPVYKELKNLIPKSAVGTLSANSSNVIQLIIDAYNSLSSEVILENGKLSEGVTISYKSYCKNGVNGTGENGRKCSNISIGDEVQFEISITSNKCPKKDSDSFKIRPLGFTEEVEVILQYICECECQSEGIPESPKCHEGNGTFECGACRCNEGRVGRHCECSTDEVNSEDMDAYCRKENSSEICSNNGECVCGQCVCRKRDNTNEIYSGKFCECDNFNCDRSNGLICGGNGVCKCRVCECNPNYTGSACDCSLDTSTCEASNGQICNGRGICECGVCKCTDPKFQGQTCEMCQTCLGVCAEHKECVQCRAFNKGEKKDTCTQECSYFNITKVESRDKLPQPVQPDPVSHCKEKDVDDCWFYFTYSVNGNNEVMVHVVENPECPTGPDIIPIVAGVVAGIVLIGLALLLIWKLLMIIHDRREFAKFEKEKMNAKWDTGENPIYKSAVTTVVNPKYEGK
Assay: In vitro binding assay: inhibition of binding of 51Cr-labeled Jurkat cells to solid phase-bound CS-1 compound (SEQ ID NO:1)
Format: cell-based
Details: not given
Experimental: Binding inhibition is measured here as a concentration of compound that inhibits one-half the binding between a standard number of Jurkat cells and a standard amount of CS-1 compound bound to the surface of a microtiter plate well. Those concentrations are conveniently expressed as IC50 values, smaller numbers indicating a lower concentration required to inhibit 50 percent binding and therefore greater potency. Further specifics of this assay are provided hereinafter.
Jurkat cells (ATCC TIB 152), a human T lymphoblastic line, labeled with ^51 chromium were used to assay in vitro binding inhibition provided by various compounds discussed herein.
The plates were prepared as follows: The 25-mer CS-1 compound (SEQ ID NO:1) dissolved at 0.5-1 μg/ml in a buffer of 0.1M NaHCO3 at pH 9.5 that also contained 10 μg/ml of bovine serum albumin (BSA) or a conjugate of the CS-1 compound linked to ovalbumin (CS-1-OVA) dissolved at 1-2.5 μg/ml in the same buffer was used as the substrate. Each well of the microtiter plates was coated with 50 μl of substrate or buffer alone for controls. The wells were permitted to dry out completely and were then rinsed twice with PBS at pH 7.4. Non-specific binding sites of each well were then blocked using 200 μl per well of RPMI/1 percent BSA for two hours at room temperature.
Jurkat cells (3-5×10^6 cells) were placed into a 15 ml Falcon™ round-bottom tube with a cap. The tube was centrifuged, and the extra medium was then removed.
Two hundred microliters of a ^51 Cr labeling solution were added to the centrifuged cells and maintained in contact with the cells for 90-120 minutes in a warm room. […] Longer contact times provide a greater amount of labeling but lower cell viability.
The labeled cells are washed with (i) complete medium, (ii) 1 mM EDTA/PBS and then (iii) RPM1/1 percent BSA free of serum components. The cells are centrifuged after each washing. The cells are finally resuspended in serum-free RPMI/1 percent BSA at a concentration of 1×10^6 viable cells/ml, which provides a concentration that is diluted by one-half in the assay.
Inhibitor compounds are prepared as stock solutions at 20 mg/ml in DMSO in 1.5 ml cryogenic screwcap vials, and were stored at -70° C. Using Flow™ round-bottom or V-bottom microtiter plates, the inhibitor compounds were prepared at twice the assay concentration in RPMI/1 percent BSA at 60 μl/well.
Four initial dilutions were typically used.
The ^51 Cr-labeled cells ([…] at 60 μl/well) were then admixed with the diluted compound solutions. The admixtures were maintained at room temperature (about 22° C.) for 30 minutes.
One hundred microliters of each inhibitor compound/cell admixture were transferred to the substrate-coated wells. This was done in triplicate for each dilution. The resulting plates were incubated for 30 minutes at 37° C. and then washed gently three times with RPMI/1 percent BSA at 200 μl/well. Binding was observed microscopically, particularly after the second wash.
The bound cells were then lysed by the addition of a 0.5 percent solution of sodium dodecylsulfate in water at 100 μl/well. The resulting solutions were then processed for counting and calculation of IC50 values following usual procedures.
The data of Table 1 are normalized to the binding of SEQ ID NO:3. […] Multiple assays for the same compound were averaged.

| SMILES | binding inhibition, in words (compared with standard 10-mer of SEQ ID NO:3 or other compounds) |
| --- | --- |
| CCCCCCCCCCCCCCCCCCNC(=O)CCCCCNC(=O)[C@@H]1CCCN1C(=O)[C@H](Cc1ccccc1)NC(=O)[C@H](CC(=O)O)NC(=O)[C@H](CC(C)C)NC(=O)Cc1ccccc1 [1068.01, phenylacetyl-Leu-Asp-Phe-Pro-NH(CH2)5 C(O)NHC18 H37] (PhAc-LDFP[Ahx]-NHOctadecyl) | binding inhibition similar to that exhibited by the standard 10-mer compound of SEQ ID NO:3 |

Same assay, conditions: binding inhibition potency (IC50) normalized to standard compound of SEQ ID NO:3 = 1; multiple assays averaged; about one-tenth or less assigned zero

| SMILES | Relative Potency |
| --- | --- |
| NC(=O)[C@H]1CCCN1C(=O)[C@H](Cc1ccccc1)NC(=O)[C@H](CC(=O)O)NC(=O)[C@H](CC1CCCCC1)NC(=O)c1ccccc1 [896.31] (Bz-[Cha]DF[dP]-NH2) | 11 |
| CC(C)C[C@H](NC(=O)c1ccccc1)C(=O)N[C@@H](CC(=O)O)C(=O)N[C@H](C(=O)N1CCC[C@H]1C(N)=O)C(C)C [896.35] | 16 |
| CC(C)C[C@H](NC(=O)Cc1ccccc1)C(=O)N[C@@H](CS)C(=O)N[C@@H](Cc1ccccc1)C(=O)N1CCC[C@@H]1C(N)=O [896.59] (PhAc-LCF[dP]-NH2) | 0 |
| CC(C)C[C@H](NC(=O)Cc1ccccc1)C(=O)N[C@@H](CC(=O)O)C(=O)N[C@H](C(=O)N1CCC[C@@H]1C(N)=O)c1ccccc1 [896.69] (PhAc-LD[Phg][dP]-NH2) | 61 |
| CC(C)C[C@H](NC(=O)c1ccccc1)C(=O)N[C@@H](CC(=O)O)C(=O)N[C@H](C(=O)N1CCC[C@@H]1C(N)=O)C(C)C [926.02] | 9.6 |
| O=C(O)C[C@H](NC1CCN(C(=O)Cc2ccccc2)CC1)C(=O)N[C@@H](Cc1ccccc1)C(=O)N1CCCC1 [992.01] | 0 |
| CC(C)C[C@H](NC(=O)Cc1ccccc1)C(=O)N[C@@H](CC(=O)O)C(=O)N[C@@H](Cc1ccccc1)C(N)=O [997.12] (PhAc-Leu-Asp-Phe-NH2) | .48 |
| CC(C)C[C@H](NC(=O)Cc1ccccc1)C(=O)N[C@@H](CC(=O)O)C(=O)NC1Cc2ccccc2N(CCN2CCOCC2)C1=O (stereo partly shown) [997.18] | 20 |
| CC(C)C[C@H](NC(=O)Cc1ccccc1)C(=O)NC(CC(=O)O)(CC(=O)O)C(=O)N[C@@H](Cc1ccccc1)C(=O)N1CCCCC1 [1026.01] | 0 |
| CC(C)C[C@H](NC(=O)Cc1ccccc1)C(=O)NC(C(=O)O)C(=O)N[C@@H](Cc1ccccc1)C(=O)N1CCCCC1 (stereo partly shown) [1026.02] | 0 |
| CC(C)C[C@H](NC(=O)Cc1ccccc1)C(=O)N[C@@H](CS(=O)(=O)O)C(=O)N[C@@H](Cc1ccccc1)C(=O)N1CCCCC1 [1026.06] (PhAc-Leu-[Cya]-Phe-Piperidide) | 0 |
| CC(C)C[C@H](NC(=O)Cc1ccccc1)C(=O)N[C@@H](CP(=O)(O)O)C(=O)N[C@@H](Cc1ccccc1)C(=O)N1CCCCC1 [1026.07] | 0 |
| CC(C)C[C@H](NC(=O)Cc1ccccc1)C(=O)N[C@@H](CS(N)(=O)=O)C(=O)N[C@@H](Cc1ccccc1)C(=O)N1CCCCC1 [1026.08] | 0 |
| CC(C)CN(CC(=O)Nc1ccccc1)C(=O)CN(CC(=O)O)C(=O)CN(Cc1ccccc1)C(=O)C1CCCC1 [1032.02] | .63 |
| CC(C)C[C@@H](CN[C@@H](CC(=O)O)C(=O)N[C@@H](Cc1ccccc1)C(=O)N1CCCCC1)NC(=O)Cc1ccccc1 [1041.01] | 0 |
| CC(C)C[C@H](NC(=O)Cc1ccccc1)C(=O)N[C@@H](CC(=O)O)C(=O)N1C(=O)N(Cc2ccccc2)C(=O)[C@H]1Cc1ccccc1 [1047.07] | .38 |
| CC(C)C[C@H](NC(=O)Cc1ccccc1)C(=O)N[C@@H](CC(=O)O)C(=O)N1C(=O)N(Cc2ccccc2)C(=O)[C@@H]1Cc1ccccc1 [1047.08] | .38 |
| CC(C)C[C@H](NC(=O)Cc1ccccc1)C(=O)N[C@@H](CC(=O)O)C(=O)N[C@@H](Cc1ccccc1)C(=O)NCCCO [1051.05] | 25 |
| NC(=O)[C@H]1CCCN1C(=O)[C@H](Cc1ccccc1)NC(=O)[C@H](CC(=O)O)NC(=O)CCCCC1CCSS1 (stereo partly shown) [1056.09] | 1.1 |
| O=C(O)CC(C(=O)N[C@@H](Cc1ccccc1)C(=O)N1CCCCC1)N1CC[C@H](NC(=O)Cc2ccccc2)C1=O (stereo partly shown) [1057.01] | .88 |
| CC(C)C[C@H](NC(=O)Cc1ccccc1)C(=O)N[C@@H](CC(=O)O)C(=O)NC1CCCCN(CC(N)=O)C1=O (stereo partly shown) [1057.06] | 97 |
| CC(C)C[C@H](NC(=O)Cc1ccccc1)C(=O)N[C@@H](CC(=O)O)C(=O)N[C@@H](Cc1ccccc1)C(=O)N1CCSCC1 [1111.02] | 450 |
| CC(C)C[C@H](NC(=O)Cc1ccccc1)C(=O)N[C@@H](CC(=O)O)C(=O)N[C@@H](Cc1ccccc1)C(=O)N1CCN(CCOCCO)CC1 [1111.07] | 510 |
| CCCC[C@H](NC(=O)Cc1ccccc1)C(=O)N[C@@H](CC(=O)O)C(=O)N[C@@H](Cc1ccccc1)C(=O)N1CCC[C@@H]1C(N)=O [1160.02] (PhAc-[Nle]DF[dP]-NH2) | 49 |

Same assay, conditions: prodrug compounds, potency before enzymatic conversion to active form; relative to SEQ ID NO:3 = 1

| SMILES | Relative Potency |
| --- | --- |
| CC(C)C[C@H](NC(=O)Cc1ccccc1)C(=O)N[C@@H](CC(=O)OCC(=O)OCc1ccccc1)C(=O)N[C@@H](Cc1ccccc1)C(=O)N1CCC[C@@H]1C(N)=O [1067.01] (PhAc-LD(X7)F[dP]-NH2) | .97 |
| CC(C)C[C@H](NC(=O)Cc1ccccc1)C(=O)N[C@@H](CC(=O)OCC(=O)O)C(=O)N[C@@H](Cc1ccccc1)C(=O)N1CCC[C@@H]1C(N)=O [1067.02] (PhAc-LD(X6)F[dP]-NH2) | .81 |
| CCCCCCCCCCCCCCCCCCNC(=O)CCCCCNC(=O)[C@@H]1CCCN1C(=O)[C@H](Cc1ccccc1)NC(=O)[C@H](CC(=O)O)NC(=O)[C@H](CC(C)C)NC(=O)Cc1ccccc1 [1068.01, phenylacetyl-Leu-Asp-Phe-Pro-NH(CH2)5 C(O)NHC18 H37] (PhAc-LDFP[Ahx]-NHOctadecyl) | .91 |
| CCCCCCCCCCNC(=O)[C@@H]1CCCN1C(=O)[C@H](Cc1ccccc1)NC(=O)[C@H](CC(=O)O)NC(=O)[C@H](CC(C)C)NC(=O)Cc1ccccc1 [1068.04] (PhAc-LDFP-NHDecyl) | 2.13 |
| CCCCCCCCCCCCCCCCCC(=O)OC1CCN(C(=O)[C@H](Cc2ccccc2)NC(=O)[C@H](CC(=O)O)NC(=O)[C@H](CC(C)C)NC(=O)Cc2ccccc2)CC1 [1068.05] | .63 |
| CCCCCCCCCC(=O)OC1CCN(C(=O)[C@H](Cc2ccccc2)NC(=O)[C@H](CC(=O)O)NC(=O)[C@H](CC(C)C)NC(=O)Cc2ccccc2)CC1 [1068.06] | .63 |
| CC(C)C[C@H](NC(=O)Cc1ccccc1)C(=O)N[C@@H](CC(=O)OCc1ccccc1)C(=O)N[C@@H](Cc1ccccc1)C(=O)N1CCC[C@@H]1C(N)=O [1068.07] (PhAc-LD(OBn)F[dP]-NH2) | 0 |
| CCCCCCCCCCOC(=O)C[C@H](NC(=O)[C@H](CC(C)C)NC(=O)Cc1ccccc1)C(=O)N[C@@H](Cc1ccccc1)C(=O)N1CCC[C@@H]1C(N)=O [1068.09] (PhAc-LD(ODecyl)F[dP]-NH2) | 0 |
| CCCCCCCCCCCCOC(=O)C[C@H](NC(=O)[C@H](CC(C)C)NC(=O)Cc1ccccc1)C(=O)N[C@@H](Cc1ccccc1)C(=O)N1CCC[C@@H]1C(N)=O [1068.10] (PhAc-LD(X5)F[dP]-NH2) | 0 |
| CCCCCCCCCCCCCCOC(=O)C[C@H](NC(=O)[C@H](CC(C)C)NC(=O)Cc1ccccc1)C(=O)N[C@@H](Cc1ccccc1)C(=O)N1CCC[C@@H]1C(N)=O [1068.11] (PhAc-LD(X1)F[dP]-NH2) | 0 |
| CCCCCCCCCCCCCCCCCCOC(=O)C[C@H](NC(=O)[C@H](CC(C)C)NC(=O)Cc1ccccc1)C(=O)N[C@@H](Cc1ccccc1)C(=O)N1CCC[C@@H]1C(N)=O [1068.12] (PhAc-LD(X8)F[dP]-NH2) | 0 |
| CCN(CC)C(=O)COC(=O)C[C@H](NC(=O)[C@H](CC(C)C)NC(=O)Cc1ccccc1)C(=O)N[C@@H](Cc1ccccc1)C(=O)N1CCC[C@@H]1C(N)=O [1068.13] (PhAc-LD(X4)F[dP]-NH2) | 0 |
